Values quoted from earlier work, collected in patent US20070072904A1, “PPAR active compounds” (priority 2005, published 2007).

What was measured:
PPARδ = target: T1, PPARδ (Homo sapiens, UniProt Q03181)
T1 sequence (Q03181 1-441): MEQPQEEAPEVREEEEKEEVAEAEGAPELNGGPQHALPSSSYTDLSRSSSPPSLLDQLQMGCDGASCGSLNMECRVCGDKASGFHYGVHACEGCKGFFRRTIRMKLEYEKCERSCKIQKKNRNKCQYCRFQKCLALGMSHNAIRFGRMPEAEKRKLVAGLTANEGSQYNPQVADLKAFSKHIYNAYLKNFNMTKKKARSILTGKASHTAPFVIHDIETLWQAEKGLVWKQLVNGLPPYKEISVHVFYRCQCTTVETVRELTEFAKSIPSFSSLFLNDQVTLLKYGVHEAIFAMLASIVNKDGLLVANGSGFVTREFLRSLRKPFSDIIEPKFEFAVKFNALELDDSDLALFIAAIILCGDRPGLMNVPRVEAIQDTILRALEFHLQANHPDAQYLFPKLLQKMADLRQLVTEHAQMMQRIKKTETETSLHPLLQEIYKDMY

murine PPARα = target: T2, murine PPARα (Mus musculus, UniProt P23204)
T2 sequence (P23204 1-468): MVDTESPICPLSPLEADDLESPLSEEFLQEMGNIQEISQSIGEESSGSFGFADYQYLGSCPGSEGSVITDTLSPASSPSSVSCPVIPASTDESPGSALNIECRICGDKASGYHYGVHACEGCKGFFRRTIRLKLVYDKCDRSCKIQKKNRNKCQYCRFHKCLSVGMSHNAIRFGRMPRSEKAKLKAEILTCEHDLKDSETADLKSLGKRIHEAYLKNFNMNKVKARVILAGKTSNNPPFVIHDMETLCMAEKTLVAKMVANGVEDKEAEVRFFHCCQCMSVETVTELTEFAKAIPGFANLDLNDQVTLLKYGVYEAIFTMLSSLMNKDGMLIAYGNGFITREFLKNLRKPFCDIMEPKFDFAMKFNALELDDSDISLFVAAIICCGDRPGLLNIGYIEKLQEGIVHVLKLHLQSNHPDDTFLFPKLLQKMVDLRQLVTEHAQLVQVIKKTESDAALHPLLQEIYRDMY

[1] = recent large prospective trial

Row | SMILES | agonist selectivity for PPARδ over PPARγ (PPARδ) | activity on murine PPARα (murine PPARα) | reduction in cardiovascular events or death [1]
1 | CCCc1c(OCCCOc2ccc(OCC(=O)O)cc2)ccc(C(C)=O)c1O [Compound L-165041] | approximately 30 fold | inactive | –
2 | Cc1ccc(C)c(OCCCC(C)(C)C(=O)O)c1 [gemfibrozil] | – | – | 22%
